Legend:
mouse 4T1 TNBC = experiment: Cell proliferation, 4T1 TNBC cells; assay type: cell-based; conditions: mouse 4T1 TNBC cells; read-out: IC50 group for inhibition of cell proliferation
PANC9 = experiment: CellTiter-Glo cell proliferation, patient-derived PANC9 tumorspheres; assay type: cell-based; conditions: Homo sapiens, 72 h, three days treatment, read-out: IC50 category
Text: Effects of Compound-5B on proliferation and Id-1 expression in pancreatic cell lines. Compound-5B was next tested for inhibition of cell viability/proliferation in the three pancreatic cancer cell lines and two primary patient-derived cancer cell lines. Compound-5B inhibited cell viability/proliferation of all the cancer cell lines (Table 2). The culturing condition for the pancreatic cell lines was similar to those used in the breast cancer lines, with the exception of the primary patient-derived pancreatic cancer cell lines (PANC9 and PANC13). For determining inhibition of cell proliferation in patient-derived pancreatic cancer cells were cultured in a T75 ultra low attachment flasks with DMEM/F12 media supplemented with B27, penicillin/streptomycin (10,000 u/mL), 50 µg/mL human epidermal growth factor (hEGF), 50 μg/mL human fibroblast growth factor, and 5 μg/mL heparin. Cells were plated in a 384-well plate and incubated for three days to promote the formation of tumorspheres. Cells were then treated with Compound-5B for three days. Cell proliferation of pancreatic cells in the presence of drug was measured using the CellTiter-Glo luminescent Assay and IC50 values were calculated (Table 2). The IC50 and corresponding 95% confidence limits (CL) were calculated using non-linear regression analysis.

DU145 (prostate) = experiment: Cell proliferation, DU145 prostate cancer cells; assay type: cell-based; conditions: Homo sapiens, DU-145, read-out: IC50 category
Text: Effects of Compound-5B on cell proliferation in additional cancer cells: To determine whether Compound-5B would have broad based anticancer activity, we study whether Compound-5B would be effective at inhibiting cell proliferation in a variety of cancers overexpressing Id-1. The assay conditions used were identical to those presented for breast and pancreatic cancers. Indeed, Compound-5B was potent at inhibiting cell proliferation in blood cancer (leukemia), glioblastoma, prostate, and ovarian cancer.

Id-1 [1] = experiment: Id-1 protein expression in 4T1 breast cancer cells; assay type: cell-based; conditions: mouse 4T1 breast cancer cells
Protocol: Quantitative Western analysis: Cells are cultured and treated in 6-well dishes. After the cells are washed twice with cold PBS, lysis buffer is added. The cells are then lysed by freezing for 10 min at −70° C. and then thawing at ambient temperature. The cell lysate is collected and the protein content is determined by using Bradford reagent. Equal amounts of protein are heated at 90° C. in Laemmli sample buffer which also included β-mercaptoethanol. The samples are then loaded onto a precast SDS-PAGE gel (Bio-Rad Laboratories, Hercules, CA). After which, proteins are then electroblotted onto an Immobilon membrane (Millipore, Billerica, MA) overnight at 2-4° C. […]
Antitumor activity of Compound-5B in vivo in breast cancer. […] We also determined whether it produced a similar effect in mouse 4T1 breast cancer cells. […] Lung metastasis % (total metastatic foci in treated/vehicle×100) was evaluated (FIG. 4B). […] Animals with established tumors (average volume of 100 mm^3) were randomized and treated once daily, 6 days a week, with i.p., injections of vehicle, or 1 mg/kg Compound-5B, tumors were measured once weekly by an operator blinded to the treatment groups. Changes in tumor volume (mm^3) were calculated as (length×width2)/2. *indicates statistically significant differences between vehicle and Compound-5B (p<0.05, Two-way ANOVA repeated measures, and Tukey's multiple comparisons test).

Id-1 [2] = experiment: Id-1 expression in PANC-1 cells (Western analysis); assay type: cell-based, human
Protocol: Quantitative Western analysis: Cells are cultured and treated in 6-well dishes. After the cells are washed twice with cold PBS, lysis buffer is added. The cells are then lysed by freezing for 10 min at −70° C. and then thawing at ambient temperature. The cell lysate is collected and the protein content is determined by using Bradford reagent. Equal amounts of protein are heated at 90° C. in Laemmli sample buffer which also included β-mercaptoethanol. The samples are then loaded onto a precast SDS-PAGE gel (Bio-Rad Laboratories, Hercules, CA). After which, proteins are then electroblotted onto an Immobilon membrane (Millipore, Billerica, MA) overnight at 2-4° C. The membrane is then blocked for 1 hour with 5% nonfat dry milk which included TBS+Tween. The membranes are then incubated with an anti-Id-1 primary antibody, and then an appropriate secondary antibody was used. Blots are incubated for 45 min and then washed 4 times with TBS+Tween for 15 min each. The blots are developed with SuperSignal Femto (Pierce, Rockford, IL), and imaged on either a Fluorchem 8900 (Alpha Innotech, San Leandro, CA) or ECL Hyperfilm (Amersham-Pharmacia, Piscataway, NJ). Band intensity values are obtained (after background subtraction) directly from the […] using AlphaeaseFC software (San Leandro, CA) or from film using Image-J (NIH, MD). […]

PANC-1 tumors = experiment: PANC-1 subcutaneous xenograft in athymic nu/nu mice; assay type: in vivo
[3] = Mouse liver microsome stability (Eurofins ADME); assay type: in vitro ADME
Protocol: (§1) Evaluating ADME of Compound-5B in vitro. It is important to evaluate ADME first in culture as it allows for the selection of the best candidate for PK analysis in vivo. ADME analysis of Compound-5B was performed by Eurofins.

CYP450 isoforms = experiment: CYP450 isoform inhibition; assay type: in vitro ADME; conditions: 1 μM
Protocol: as §1

CYP2C9 = biological target: T1, CYP2C9 (Homo sapiens, UniProt P11712); experiment: CYP2C9 inhibition; assay type: in vitro ADME; conditions: 10 μM
T1 construct: purchased Eurofins
T1 sequence (P11712 whole entry): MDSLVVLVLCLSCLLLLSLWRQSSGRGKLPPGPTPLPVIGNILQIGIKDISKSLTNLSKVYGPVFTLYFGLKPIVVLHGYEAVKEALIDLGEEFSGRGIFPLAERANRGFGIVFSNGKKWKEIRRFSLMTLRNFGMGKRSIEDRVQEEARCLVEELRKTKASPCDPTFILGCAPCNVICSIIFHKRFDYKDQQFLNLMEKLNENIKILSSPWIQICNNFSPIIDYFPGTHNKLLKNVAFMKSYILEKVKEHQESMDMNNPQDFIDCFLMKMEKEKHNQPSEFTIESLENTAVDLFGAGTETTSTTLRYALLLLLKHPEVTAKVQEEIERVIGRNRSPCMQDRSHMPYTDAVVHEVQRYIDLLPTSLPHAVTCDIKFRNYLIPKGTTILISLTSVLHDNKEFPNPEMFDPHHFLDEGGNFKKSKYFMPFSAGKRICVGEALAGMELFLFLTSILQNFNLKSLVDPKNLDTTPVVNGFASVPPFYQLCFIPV
Protocol: as §1

[4] = biological target: T2, ADRB1 (β-Adrenergic receptor) (Homo sapiens, UniProt P08588); experiment: SAFETY scan E/IC50 ELECT, ADRB1; assay type: biochemical; conditions: read-out: inhibition against ADRB1 (mild)
T2 construct: purchased Eurofin's
T2 sequence (P08588 whole entry): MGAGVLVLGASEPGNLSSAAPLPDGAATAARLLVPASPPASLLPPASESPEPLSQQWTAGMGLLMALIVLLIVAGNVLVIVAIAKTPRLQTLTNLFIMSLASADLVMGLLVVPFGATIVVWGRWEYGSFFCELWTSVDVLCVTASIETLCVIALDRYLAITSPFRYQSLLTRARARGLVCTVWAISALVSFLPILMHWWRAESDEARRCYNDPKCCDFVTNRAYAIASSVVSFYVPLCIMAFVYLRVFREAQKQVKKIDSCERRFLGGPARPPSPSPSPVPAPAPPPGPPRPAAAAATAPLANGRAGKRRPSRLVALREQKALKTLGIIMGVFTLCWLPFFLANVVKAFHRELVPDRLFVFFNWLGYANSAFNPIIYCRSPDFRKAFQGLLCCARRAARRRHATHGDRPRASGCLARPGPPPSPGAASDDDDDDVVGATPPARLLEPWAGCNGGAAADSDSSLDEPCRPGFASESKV

[5] = biological target: T3, ADRB2 (β-Adrenergic receptor) (Homo sapiens, UniProt P07550); experiment: SAFETY scan E/IC50 ELECT, ADRB2; assay type: biochemical; conditions: read-out: inhibition against ADRB2 (mild)
T3 construct: purchased Eurofin's
T3 sequence (P07550 whole entry): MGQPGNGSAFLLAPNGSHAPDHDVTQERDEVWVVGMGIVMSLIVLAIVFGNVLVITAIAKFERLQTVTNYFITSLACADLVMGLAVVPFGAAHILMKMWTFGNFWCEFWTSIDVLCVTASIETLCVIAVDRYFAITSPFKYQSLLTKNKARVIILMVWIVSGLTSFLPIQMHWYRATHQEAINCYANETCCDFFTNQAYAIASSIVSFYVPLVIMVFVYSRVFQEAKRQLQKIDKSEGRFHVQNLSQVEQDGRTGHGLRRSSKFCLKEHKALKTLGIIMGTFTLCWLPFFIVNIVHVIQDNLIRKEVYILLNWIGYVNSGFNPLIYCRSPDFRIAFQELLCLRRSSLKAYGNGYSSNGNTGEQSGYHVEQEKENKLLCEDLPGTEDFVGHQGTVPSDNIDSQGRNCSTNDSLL

## CCCCCCC(C)(C)c1cc(O)c(C(=O)Nc2ccccc2)c(O)c1 [Compound 5B, 2,6-dihydroxy-4-(2-methyloctan-2-yl)-N-phenylbenzamide]
Mouse 4T1 TNBC
  IC50: 0.5 to 1 µM
PANC9
  IC50: < 0.5 µM
DU145 (prostate)
  IC50: < 0.5 µM
Id-1 [1]
  Id-1 protein expression: downregulation of Id-1 protein expression
Id-1 [2]
  inhibition of Id-1 expression: able to effectively inhibit Id-1 expression
PANC-1 tumors; PANC-1 tumor mice, Compound-5B 10 mg/kg i.p. daily, gemcitabine 50 mg/kg i.p. three times a week
  weight loss (metric of drug toxicity): no significant weight loss
PANC-1 tumors; athymic nu/nu mice, 10 mg/kg i.p. once daily
  growth of PANC-1 tumors: reduced the growth of PANC-1 tumors as effectively as gemcitabine
[3]
  clearance (microsomal stability assays): acceptable
  half-life (microsomal stability assays): acceptable
  stability in mouse liver microsomes: good
CYP450 isoforms
  inhibition of important CYP450 isoforms: does not inhibit
CYP2C9
  inhibition of CYP2C9: some inhibition
[4]
  IC50: 0.64 to 0.75 µM
[5]
  IC50: 0.64 to 0.75 µM

Source: patent US12612358B2, “Resorcinol-based compounds and uses thereof” (priority 2020, dated 2026)
